pIC50: −log10 of the molar value.
Experiments:
[1] = Inhibition of human RFC expressed in Chinese hamster PC43-10 cells assessed as antiproliferative activity measured as reduction in cell viability after 96 hrs by Cell-Titer Blue fluorescence analysis
[2] = Inhibition of human PCFT expressed in Chinese hamster R2/PCFT4 cells assessed as antiproliferative activity measured as reduction in cell viability after 96 hrs by Cell-Titer Blue fluorescence analysis
[3] = Inhibition of human FR-alpha receptor expressed in Chinese hamster RT16 cells assessed as antiproliferative activity measured as reduction in cell viability after 96 hrs by Cell-Titer Blue fluorescence analysis
[4] = Inhibition of human FR-beta receptor expressed in Chinese hamster D4 cells assessed as antiproliferative activity measured as reduction in cell viability after 96 hrs by Cell-Titer Blue fluorescence analysis

| Structure (SMILES) | pIC50 [1] | pIC50 [2] | pIC50 [3] | pIC50 [4] |
| --- | --- | --- | --- | --- |
| Nc1nc2[nH]c(CCN(C(=O)C(F)(F)F)c3ccc(C(=O)N[C@@H](CCC(=O)O)C(=O)O)cc3)cc2c(=O)[nH]1 | 6.11 | 6.96 | 8.96 | 9.35 |
| Nc1nc2[nH]c(CCSc3ccc(C(=O)N[C@@H](CCC(=O)O)C(=O)O)cc3)cc2c(=O)[nH]1 | < 6.00 | 6.57 | 9.29 | 9.47 |
| Nc1nc2[nH]c(CCOc3ccc(C(=O)N[C@@H](CCC(=O)O)C(=O)O)cc3)cc2c(=O)[nH]1 | 6.19 | 7.24 | 8.72 | 8.59 |
| CC(=O)N(CCc1cc2c(=O)[nH]c(N)nc2[nH]1)c1ccc(C(=O)N[C@@H](CCC(=O)O)C(=O)O)cc1 | 6.09 | 7.09 | 8.31 | 8.80 |
| Nc1nc2[nH]c(CCNc3ccc(C(=O)N[C@@H](CCC(=O)O)C(=O)O)cc3)cc2c(=O)[nH]1 | 6.29 | 7.06 | 8.52 | 9.21 |
| Nc1nc2[nH]c(CCN(C=O)c3ccc(C(=O)N[C@@H](CCC(=O)O)C(=O)O)cc3)cc2c(=O)[nH]1 | 6.19 | 7.05 | 8.52 | 9.28 |

From BindingDB's records for doi:10.1021/acs.jmedchem.6b00594 (Duquesne University, 2016)
